In US11311522B1 (Cavion, Inc., priority 2018, dated 2022):
Read-outs that look alike come from different tables or passages of the source.

Key:
GAERS rats = test: GAERS rat model of absence epilepsy; settings: 100 mg/kg oral
[1] = T-CALM: plasma concentrations by 5-in-1 LC/MS/MS; assay type: in vivo, human; settings: for Plasma concentration, mean: trough; for concentration at 4 h: human, plasma, oral, 4 hours post-dose
Procedure: Additionally, at Visit 4, a post-dose sample will be collected as close to 4 hours post-dose as possible, but within the window of 4-6 hours post-dose (i.e., a total of two PK samples are collected at Visit 4.)
Assay performances were satisfactory and met acceptance criteria for system performance suitability, quantitation range, calibration linearity, assay accuracy and precision, and assay recovery.

Cav3.3 = biological target: T1, Cav3.3 (Homo sapiens, UniProt Q9P0X4); test: Cav3.3 FLIPR calcium influx assay (HEK 293 cells); assay type: cell-based; settings: for IC50: Cav3.3 FLIPR assay; for State dependence: hyperpolarized versus depolarized FLIPR potency
T1 construct: expressed in transfected cells; host or cells: HEK 293
T1 sequence (Q9P0X4 whole entry, species assumed): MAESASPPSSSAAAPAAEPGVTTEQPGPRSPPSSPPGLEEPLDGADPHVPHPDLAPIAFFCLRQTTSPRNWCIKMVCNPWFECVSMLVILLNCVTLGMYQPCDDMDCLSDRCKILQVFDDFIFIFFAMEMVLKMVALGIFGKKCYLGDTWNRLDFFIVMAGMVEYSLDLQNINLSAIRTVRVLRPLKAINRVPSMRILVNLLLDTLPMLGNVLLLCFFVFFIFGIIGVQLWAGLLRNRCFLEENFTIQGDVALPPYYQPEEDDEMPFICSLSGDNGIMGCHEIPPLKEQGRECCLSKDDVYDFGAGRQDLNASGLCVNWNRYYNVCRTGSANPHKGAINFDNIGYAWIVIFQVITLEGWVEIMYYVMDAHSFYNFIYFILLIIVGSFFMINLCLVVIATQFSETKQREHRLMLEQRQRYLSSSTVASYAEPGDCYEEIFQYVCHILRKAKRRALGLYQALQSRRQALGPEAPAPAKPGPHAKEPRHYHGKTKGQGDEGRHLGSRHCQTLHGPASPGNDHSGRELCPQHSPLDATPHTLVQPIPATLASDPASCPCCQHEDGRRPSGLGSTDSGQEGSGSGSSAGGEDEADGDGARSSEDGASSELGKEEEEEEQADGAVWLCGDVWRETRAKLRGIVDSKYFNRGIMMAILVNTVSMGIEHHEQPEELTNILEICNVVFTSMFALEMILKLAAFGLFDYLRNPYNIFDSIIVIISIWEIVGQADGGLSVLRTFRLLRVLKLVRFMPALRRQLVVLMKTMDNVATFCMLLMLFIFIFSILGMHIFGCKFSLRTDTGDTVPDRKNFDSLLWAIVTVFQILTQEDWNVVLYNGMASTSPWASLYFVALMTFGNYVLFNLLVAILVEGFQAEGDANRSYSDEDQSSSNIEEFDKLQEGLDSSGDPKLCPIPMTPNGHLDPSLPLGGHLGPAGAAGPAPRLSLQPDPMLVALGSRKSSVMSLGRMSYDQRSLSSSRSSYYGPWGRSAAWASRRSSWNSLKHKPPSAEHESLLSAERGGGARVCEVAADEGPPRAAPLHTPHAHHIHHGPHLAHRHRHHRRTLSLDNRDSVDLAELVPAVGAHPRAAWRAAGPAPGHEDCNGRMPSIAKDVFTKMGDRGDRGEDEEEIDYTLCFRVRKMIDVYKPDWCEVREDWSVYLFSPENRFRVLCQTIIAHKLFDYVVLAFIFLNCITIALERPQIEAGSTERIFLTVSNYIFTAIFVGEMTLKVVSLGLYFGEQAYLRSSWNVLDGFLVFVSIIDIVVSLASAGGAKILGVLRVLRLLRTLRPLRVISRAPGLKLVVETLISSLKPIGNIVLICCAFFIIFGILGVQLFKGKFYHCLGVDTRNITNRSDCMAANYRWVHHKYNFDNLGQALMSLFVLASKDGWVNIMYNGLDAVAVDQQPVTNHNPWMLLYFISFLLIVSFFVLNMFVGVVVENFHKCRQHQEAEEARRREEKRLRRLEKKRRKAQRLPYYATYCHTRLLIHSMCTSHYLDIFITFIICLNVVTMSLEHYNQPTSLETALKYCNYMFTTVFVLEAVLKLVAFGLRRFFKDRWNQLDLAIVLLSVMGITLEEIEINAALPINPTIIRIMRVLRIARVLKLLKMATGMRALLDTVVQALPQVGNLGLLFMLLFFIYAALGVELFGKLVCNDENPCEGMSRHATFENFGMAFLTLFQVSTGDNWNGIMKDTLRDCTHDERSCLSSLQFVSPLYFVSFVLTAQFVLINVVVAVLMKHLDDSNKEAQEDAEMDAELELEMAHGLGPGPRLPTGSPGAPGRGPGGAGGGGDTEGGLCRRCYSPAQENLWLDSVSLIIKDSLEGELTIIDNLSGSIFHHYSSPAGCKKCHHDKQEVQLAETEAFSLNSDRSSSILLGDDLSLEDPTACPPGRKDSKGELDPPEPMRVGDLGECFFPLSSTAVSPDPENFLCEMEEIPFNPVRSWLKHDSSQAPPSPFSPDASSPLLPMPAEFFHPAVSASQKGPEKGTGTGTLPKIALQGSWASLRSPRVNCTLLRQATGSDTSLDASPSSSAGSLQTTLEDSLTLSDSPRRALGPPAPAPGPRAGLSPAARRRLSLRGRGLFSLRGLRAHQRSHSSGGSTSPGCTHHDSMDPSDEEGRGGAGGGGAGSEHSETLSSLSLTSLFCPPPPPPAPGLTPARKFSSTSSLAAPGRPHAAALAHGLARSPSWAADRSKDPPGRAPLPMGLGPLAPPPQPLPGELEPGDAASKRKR

WAG/Rij rats = test: WAG/Rij rat model of absence epilepsy; assay type: in vivo; settings: 10 mg/kg oral
From the text: Other T-type antagonists from structurally diverse series have shown similar efficacy in this model (Broicher, 2007; Blumenfeld, 2008; Broicher, 2008; Shipe, 2008; Yang, 2008; Uebele, 2009; Russo, 2010; Russo, 2011).
Data were scored with automated seizure analysis software, averaged, and normalized to enable treatment comparisons (FIG. 76)
Control animals received vehicle administrations. […] Source: Merck TTA Package Description (FIG. 79).

[2] = Single-dose toxicokinetic study in dogs; assay type: in vivo; settings: dog, plasma, po, 800 mg/kg
[3] = In vitro plasma protein binding, human; assay type: in vitro ADME; settings: human plasma, read-out: Human-free fraction
[4] = Brain penetration in male rats; assay type: in vivo; settings: rat, 25 mg/kg
in vivo = settings: rat, po
[5] = 90-day oral toxicology in Beagle dogs; settings: Beagle, dog, in vivo, po
[6] = rodents; from literature; cited from earlier work
[7] = rodents; from literature; cited from earlier work; remark: listed apart in the source
Cav3 = settings: from literature, cited from earlier work; for IC50: read-out: Cav3 potency
harmaline-induced tremor = settings: dose levels up to 10 mg/kg; cited from earlier work
[8] = rodents; from literature; cited from earlier work; remark: listed apart in the source
[9] = tested on: patients with schizophrenia; test: PN004: safety; assay type: in vivo, human; settings: Study PN004, subjects with schizophrenia, BID Days 1 to 28; CX-8998 N = 86, Olanzapine N = 47
From the text: The primary efficacy endpoint was the mean change from baseline in the Positive and Negative Syndrome Scale (PANSS) total score at Week 4; secondary efficacy endpoints included responder rates on the PANSS total score at Week 4 and the change from baseline in the Clinical Global Impressions—Severity of Illness Scale at Week 4. Safety was monitored by adverse events, laboratory evaluations, ECGs, Holter monitoring, vital signs, the Simpson-Angus Scale, the Barnes Akathisia Rating Scale, the Abnormal Involuntary Movement Scale, and the Columbia Suicide-Severity Rating scale (C-SSRS).

[10] = depolarized, read-out: Depolarized FLIPR potency
[11] = hyperpolarized, read-out: Hyperpolarized FLIPR potency

SMILES | Plasma concentration, mean ([1]; Visit 2 (Day 8), 4 mg BID) [nM] | Plasma concentration, mean ([1]; Visit 3 (Day 15), 8 mg BID) [nM] | Plasma concentration, mean ([1]; Visit 4 (Day 28), 10 mg BID) [nM] | concentration at 4 h ([1]; Visit 4 (Day 28), 10 mg BID) [nM] | IC50 (Cav3.3; [10]) [nM] | IC50 (Cav3.3; [11]) [nM] | State dependence (Cav3.3) [fold] | Percent of inhibition (WAG/Rij rats) [%] | fraction unbound [3] | AUC (in vivo; female, 5 mg/kg) [µM·h] | AUC (in vivo; female, 15 mg/kg) [µM·h] | AUC (in vivo; female, 100 mg/kg) [µM·h] | AUC (in vivo; female, 300 mg/kg) [µM·h] | AUC (in vivo; male, 5 mg/kg) [µM·h] | AUC (in vivo; male, 15 mg/kg) [µM·h] | AUC (in vivo; male, 100 mg/kg) [µM·h] | AUC (in vivo; male, 300 mg/kg) [µM·h] | AUC ([5]; female, 10 mg/kg) [µM·h] | AUC ([5]; female, 30 mg/kg) [µM·h] | AUC ([5]; female, 100 mg/kg/day) [µM·h] | further results
CCC1(C)CC(=O)NC1=O (stereo not shown) [Ethosuximide, ethosuximide] |  |  |  |  |  |  |  |  |  |  |  |  |  |  |  |  |  |  |  |  | Number and frequency of seizures (GAERS rats): only partially suppressed
CC(C(=O)O)c1ccc(CC(=O)N[C@H](C)c2ccc(OCC(F)(F)F)cn2)cc1 (stereo partly shown) [M03] | 11 | 16 | 20 | 22 | 948 | 3320 | 3.5 | 71 | 0.21 | 9.85 | 19.7 | 159 | 169 | 23.9 | 34.9 | 181 | 213 | 8.4 | 15.4 | 17.2 | Potency and state dependence compared with CX-8998 (Cav3.3): significantly less potent and state dependent; Tmax ([2]; female): 8 h; Tmax ([2]; male): 24 h; Kp at 2 h ([4]; brain and plasma, oral, read-out: Brain-to-plasma ratio): 0.01; Kp at 2 h ([4]; brain, po, read-out: Brain: Plasma Ratio): 0.01; AUC ([5]; male, 10 mg/kg): 10.5 µM·h; AUC ([5]; male, 30 mg/kg): 12.3 µM·h; AUC ([5]; male, 100 mg/kg/day): 79.6 µM·h
CC(CO)c1ccc(CC(=O)N[C@H](C)c2ccc(OCC(F)(F)F)cn2)cc1 (stereo partly shown) [M04] | 4.5 | 4.9 | 5.6 | 6.4 | 19 | 1810 | 95 | 60 | 0.13 | 3.19 | 8.04 | 61.9 | 55.3 | 1.32 | 2.47 | 15.5 | 19.4 | 2.19 | 3.75 | 8.1 | Fold less potent than CX-8998 (Cav3.3): approximately 5 fold; AUC ([5]; male, 10 mg/kg): 3.37 µM·h; AUC ([5]; male, 30 mg/kg): 2.25 µM·h; AUC ([5]; male, 100 mg/kg/day): 33.9 µM·h
C[C@@H](NC(=O)Cc1ccc(C2CC2)cc1)c1ccc(OCC(F)(F)F)cn1 [TTA-A2] |  |  |  |  |  |  |  |  |  |  |  |  |  |  |  |  |  |  |  |  | AUClast [6]: 30 µM·h; t½ [6]: 1.5 h; Plasma-free fraction [7]: 0.6%; State dependency (Cav3): ≥40 fold; IC50 (Cav3): 89 to 98 nM
CC1(C)C[C@@H](CN2CCC(F)(CNC(=O)c3cc(Cl)cc(Cl)c3)CC2)CCO1 [TTA-P2] |  |  |  |  |  |  |  |  |  |  |  |  |  |  |  |  |  |  |  |  | Harmaline-induced tremor (harmaline-induced tremor): normalized both physiologic tremor prior to harmaline administration and harmaline-induced tremor in a dose-dependent fashion; AUClast [6]: 1.94 µM·h; Cmax [6]: 480 nM; Tmax [6]: 42 min; t½ [6]: 1.8 h; Plasma-free fraction [7]: 5.7%; Brain/plasma ratio [8]: 6.0; State dependency (Cav3): 1 fold; IC50 (Cav3): 84 to 196 nM
Cc1cc2c(s1)Nc1ccccc1N=C2N1CCN(C)CC1 [olanzapine, reference compound] |  |  |  |  |  |  |  |  |  |  |  |  |  |  |  |  |  |  |  |  | Anxiety [9]: 0 (0.0); At least 1 adverse event [9]: 23 (48.9); Chronic pharyngitis [9]: 0 (0.0); Dizziness [9]: 1 (2.1); Headache [9]: 3 (6.4); Rhinopharyngitis [9]: 0 (0.0); Schizophrenia [9]: 1 (2.1); Sinus tachycardia [9]: 3 (6.4); Somnolence [9]: 3 (6.4)
